Results: US4937390A, “Compound useful for the production of 3-deoxy-3-fluoro-myo-inositol” (University of Pittsburgh, priority 1989, dated 1990)

Target: T1, myo-inositol transporter (Rattus norvegicus, UniProt Q80WA5)
T1 construct: PC12 cells were gently detached and maintained in a suspension culture; endogenous in cells; host or cells: PC12 cells
T1 sequence (Q80WA5 1-718): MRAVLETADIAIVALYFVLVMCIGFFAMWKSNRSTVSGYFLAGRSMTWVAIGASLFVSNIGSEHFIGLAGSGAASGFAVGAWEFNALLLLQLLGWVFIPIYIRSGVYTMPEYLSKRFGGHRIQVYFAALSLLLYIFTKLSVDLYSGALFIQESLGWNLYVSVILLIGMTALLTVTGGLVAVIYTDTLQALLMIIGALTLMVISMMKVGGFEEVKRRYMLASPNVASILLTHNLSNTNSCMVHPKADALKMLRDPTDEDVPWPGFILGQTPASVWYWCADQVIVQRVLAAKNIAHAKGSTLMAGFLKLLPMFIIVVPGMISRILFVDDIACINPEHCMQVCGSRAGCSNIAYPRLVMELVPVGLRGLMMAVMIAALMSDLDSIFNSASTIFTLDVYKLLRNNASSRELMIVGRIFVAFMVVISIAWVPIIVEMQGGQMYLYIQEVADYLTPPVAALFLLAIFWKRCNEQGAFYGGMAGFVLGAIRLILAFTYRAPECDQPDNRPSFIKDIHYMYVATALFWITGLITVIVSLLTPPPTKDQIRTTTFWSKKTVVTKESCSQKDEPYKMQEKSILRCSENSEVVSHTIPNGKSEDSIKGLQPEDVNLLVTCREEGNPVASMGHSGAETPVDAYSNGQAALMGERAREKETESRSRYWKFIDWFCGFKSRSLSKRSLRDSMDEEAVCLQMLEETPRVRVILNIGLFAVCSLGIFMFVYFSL
Test: [3H]myo-inositol uptake by the myo-inositol transporter in PC12 cells
Assay type: cell-based
Conditions: for block of [3H]myo-inositol uptake / Maximal Transport Rate Vmax / Ki: PC12 cells; for Maximal Transport Rate Vmax: in the presence of 1 mM analog; for Ki: uptake studies in the presence of a fixed concentration (1 mM) of analog, read-out: Affinity Constant K (Ki of the analog)
Protocol: To determine if the effect of the fluoro-myo-inositol analogs might be mediated by the blockade of the myo-inositol transporter, which is responsible for uptake and accumulation of myo-inositol into the cell, the ability of these two compounds to block [^3 H]myo-inositol transport was studied directly.
The uptake of [^3 H]myo-inositol by the myo-inositol transporter was determined as follows:
PC12 cells were gently detached and maintained in a suspension culture in RPMI medium (both myo-inositol and serum free) at 37° C. ]^3 H]myo-inositol was added to this culture at a concentration of 1μCi/ml. Aliquots of this suspension were removed at the indicated time, diluted in 10 volumes of ice-cold PBS containing 10 mM unlabelled myo-inositol to stop the uptake process, centrifuged at 4° C. for 20 minutes at 50 xg. The cell pellet, which contained the transported [^3 H]myo-inositol, was dissolved in dilute NaOH and the radioactivity quantified by liquid scintillation counting.
The […] and Vmax of myoinositol were determined from LineweaverBurke plots
of the uptake of [^3 H]myoinositol (25 nM) in the presence of
increasing concentrations of unlabeled myoinositol in PC12 cells. The Ki
of the two fluoromyo-inositol analogs was determined by conducting the
uptake studies in the presence of a fixed concentration (1 mM) of each

affinity for the myo-inositol transporter, fold lower than the 3-fluoro-myo-inositol analog	block of [3H]myo-inositol uptake	Maximal Transport Rate Vmax	Ki	potency in blocking myo-inositol transport relative to the 1-fluoro myo-inositol analog	SMILES
5.7 fold	did block	2.27 nmol/mg/h	1430 µM		O[C@@H]1[C@@H](O)[C@@H](O)[C@@H](F)[C@H](O)[C@H]1O [1-deoxy-1-fluoro-myo-inositol]
	did block	2.27 nmol/mg/h	250 µM	5.7 times	O[C@@H]1[C@@H](O)[C@H](O)[C@@H](F)[C@@H](O)[C@H]1O [3-deoxy-3-fluoro-myo-inositol]
